Measured values from PubChem BioAssay (NCI).
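Five compound concentrations were applied to cells in 96-well plates for 48 hours; endpoints were derived by simple linear interpolation of the resulting dose-response curve. TGI is the concentration that stops growth completely.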

Columns and labels:
Assay in all cases: inhibition of tumour cell growth, NCI panel, 48 h
ACHN renal = system: ACHN renal
HL-60(TB) leukemia = system: HL-60(TB) leukemia
HOP-18 NSCLC = system: HOP-18 NSCLC
HOP-92 NSCLC = system: HOP-92 NSCLC
HT29 colon = system: HT29 colon
IGROV1 ovarian = system: IGROV1 ovarian
K-562 leukemia = system: K-562 leukemia
LOX IMVI melanoma = system: LOX IMVI melanoma
NCI-H460 lung = system: NCI-H460 lung
OVCAR-4 ovarian = system: OVCAR-4 ovarian
RPMI-8226 leukemia = system: RPMI-8226 leukemia
RXF 393 renal = system: RXF 393 renal
SF-295 CNS = system: SF-295 CNS
SNB-19 CNS = system: SNB-19 CNS
SNB-75 CNS = system: SNB-75 CNS
MCF7 breast = system: MCF7 breast
MDA-N = system: MDA-N
NCI-H226 lung = system: NCI-H226 lung
NCI-H522 lung = system: NCI-H522 lung
HOP-62 NSCLC = system: HOP-62 NSCLC

Compound	TGI (ACHN renal) [µM]	TGI (HL-60(TB) leukemia) [µM]	TGI (HOP-18 NSCLC) [µM]	TGI (HOP-92 NSCLC) [µM]	TGI (HT29 colon) [µM]	TGI (IGROV1 ovarian) [µM]	TGI (K-562 leukemia) [µM]	TGI (LOX IMVI melanoma) [µM]	TGI (NCI-H460 lung) [µM]	TGI (OVCAR-4 ovarian) [µM]	TGI (RPMI-8226 leukemia) [µM]	TGI (RXF 393 renal) [µM]	TGI (SF-295 CNS) [µM]	TGI (SNB-19 CNS) [µM]	TGI (SNB-75 CNS) [µM]	TGI (MCF7 breast) [µM]	TGI (MDA-N) [µM]	TGI (NCI-H226 lung) [µM]	TGI (NCI-H522 lung) [µM]	TGI (HOP-62 NSCLC) [µM]
COc1ccc(-c2cc3[nH]nc(N)c3c(=O)o2)cc1	> 100	> 100	> 100	> 100	> 100	> 100	> 100	> 100	> 100	> 100	> 100	> 100	> 100	> 100	> 100					
Cc1ccc(S(=O)(=O)N2CCCSCC2)cc1	> 100			> 100	> 100		> 100	> 100	> 100	> 100		> 100	> 100	> 100	> 100	> 100	> 100	> 100	> 100	
CC1(C)OCC=CCO1	> 100	> 100		> 100	> 100	> 100	> 100	> 100	> 100	> 100	> 100	> 100	> 100	> 100	> 100	> 100	> 100	> 100	> 100	> 100
Oc1ccc(-c2nc3ccc(Cl)cc3s2)cc1	> 100	57.7			34.6	32.4	> 100	45.9	36.1		47.3	44	34.1	40.4		22.6	37.6	41.6	31.7	
CC1=C(C)Cc2c(O)ccc(O)c2C1	31.2	23.5		36.4	30.5		49.8	46.7	> 100		27.2	30	> 100	> 100	31.3	51.3	30.7	42.1		50.1
